Experimental data published in PMC3598492, “Cannabinoid receptor type 2 (CB2)-selective N-aryl-oxadiazolyl-propionamides: synthesis, radiolabelling, molecular modelling and biological evaluation” (Organic and Medicinal Chemistry Letters, 2012).

How the values were obtained:
[1] = biological target: T1, hCB2 (Homo sapiens, UniProt P34972); assay: Competitive [3H]CP55,940 binding on membrane homogenates of hCB2-CHO cells
T1 construct: host or cells: CHO (hCB2-CHO), crude membrane homogenates
Method: (§1) CHO cell lines stably transfected with human CB1 (hCB1-CHO; obtained from Euroscreen, Gosselies, Belgium) or human CB2 (hCB2-CHO; obtained from Paul L. Prather, Department of Pharmacology and Toxicology, College of Medicine, University of Arkansas for Medical Sciences, USA) were cultured in Ham's F12 medium or Dulbecco's modified Eagle's medium (DMEM) with 10% fetal calf serum, 100 IU/mL penicillin, 100 μg/mL streptomycin and 250 or 400 μg/mL of the selection antibiotic Geneticin (G418), respectively. The cells were cultured in a humidified atmosphere with 5% CO2 at 37°C. Confluent cell layers of 175-cm^2 flasks were scraped; cells were harvested by centrifugation (800 rpm, 3 min), counted by trypan blue staining, suspended in 200 μL of 50 mM tris(hydroxymethyl)aminomethane (TRIS; pH 7.4) at 4°C and stored at −32°C until the binding experiment.
(§2) Competitive binding experiments were performed with crude membrane homogenates obtained from hCB1-CHO or hCB2-CHO cells as described above. […] Incubations were terminated by rapid filtration through a GF-B glass fibre filter pre-incubated for 90 min at room temperature in freshly prepared 0.5% polyvinylpyrrolidone + 0.1% Tween 20 solution using a 48-well cell harvester (Brandel, Gaithersburg, MD, USA).
The corresponding inhibition constants (Ki) of test compounds were derived from the IC50 values using the Cheng-Prusoff equation [49]. All binding experiments were performed in triplicates, and data are given as mean values from independent experiments.

[2] = biological target: T2, CB2 receptors in mouse spleen tissue (Mus musculus, UniProt P47936); assay: Autoradiographic displacement of [3H]CP55,940 on coronal mouse spleen sections; assay type: binding; settings: read-out: Fractional occupancy of [3H]CP55,940 binding sites calculated by Gaddum equation
T2 construct: 12-μm-thick coronal sections obtained from the spleens of three animals; from tissue; host or cells: spleen sections of female CD-1 mice
T2 sequence (P47936 whole entry): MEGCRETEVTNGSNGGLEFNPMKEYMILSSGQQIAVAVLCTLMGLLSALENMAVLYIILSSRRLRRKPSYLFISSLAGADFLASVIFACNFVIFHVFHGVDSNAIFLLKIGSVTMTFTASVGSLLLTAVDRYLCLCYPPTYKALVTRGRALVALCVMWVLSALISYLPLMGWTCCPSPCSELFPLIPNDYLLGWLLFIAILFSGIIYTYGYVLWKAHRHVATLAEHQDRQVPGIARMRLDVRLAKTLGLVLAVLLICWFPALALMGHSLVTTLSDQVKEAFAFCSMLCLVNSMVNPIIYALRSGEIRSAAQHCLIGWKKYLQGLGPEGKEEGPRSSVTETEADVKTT
Method: Animal experiments were performed under procedures approved by the State of Saxony Animal Care and Use Committee and conducted in accordance with the German Law for the Protection of Animals. Female CD-1 mice (10 to 12 weeks old, 20 to 25 g), obtained from the Medizinisch-Experimentelles Zentrum der Universität Leipzig (Leipzig, Germany), were used for the experiments.
The animals were anesthetized and sacrificed, and their spleens were rapidly removed and frozen in isopentane at −35°C. The spleens were brought to −15°C in a cryostat (Microm International GmbH, Walldorf, Germany), and a series of 12-μm-thick coronal sections obtained from the spleens of three animals were collected in parallel on microscopic glass slides. The sections were dried at room temperature and stored at −35°C until they were processed for receptor binding autoradiography.
For autoradiographic experiments, the slides were brought to room temperature, dried in a stream of cold air, pre-incubated in a binding buffer (50 mM TRIS (pH 7.4) at 21°C, 5% BSA) for 15 min at room temperature and dried again in a stream of cold air. […] Samples were washed twice for 30 min at 4°C in 50 mM TRIS (pH 7.4) at 4°C, containing 1% BSA, dipped briefly in ice-cold deionized water (5 s), dried in a stream of cold air and exposed along with [^3H] standards (Amersham/GE Healthcare, Piscataway, NJ, USA) for 14 days to [^3H]-sensitive screen plates (Fuji Photo Film, Co. Ltd., Tokyo, Japan).
The image plates were analysed using a BAS-1800II system bioimaging analyser (Fuji Photo Film, Co. Ltd., Tokyo, Japan). Scan data were visualized and processed by computer-assisted microdensitometry (Aida version 2.31, Raytest Isotopenmessgeräte GmbH, Straubenhardt, Germany). Irregular regions of interest (ROIs) were drawn on selected areas of the spleen labelled as red pulp (low-density binding) and white pulp (high-density binding) according to Lynn and Herkenham and Massi et al..

[3] = biological target: T3, hCB1 (Homo sapiens, UniProt P21554); assay: Competitive [3H]CP55,940 binding on membrane homogenates of hCB1-CHO cells; settings: hCB1-CHO; read-out: Ki hCB1
T3 construct: host or cells: CHO (hCB1-CHO), crude membrane homogenates
T3 sequence (P21554 whole entry): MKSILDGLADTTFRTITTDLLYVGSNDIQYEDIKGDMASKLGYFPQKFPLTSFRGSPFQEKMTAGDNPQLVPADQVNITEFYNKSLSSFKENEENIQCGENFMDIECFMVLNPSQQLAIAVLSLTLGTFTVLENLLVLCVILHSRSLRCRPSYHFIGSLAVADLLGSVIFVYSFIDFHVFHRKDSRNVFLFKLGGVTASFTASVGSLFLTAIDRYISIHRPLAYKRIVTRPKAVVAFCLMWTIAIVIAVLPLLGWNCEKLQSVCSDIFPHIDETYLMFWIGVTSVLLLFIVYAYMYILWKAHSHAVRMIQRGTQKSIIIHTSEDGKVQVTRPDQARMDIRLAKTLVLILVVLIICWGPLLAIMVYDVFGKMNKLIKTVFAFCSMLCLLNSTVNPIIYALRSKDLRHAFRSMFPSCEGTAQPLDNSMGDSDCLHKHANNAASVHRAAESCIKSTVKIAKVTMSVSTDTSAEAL
Method: as §1, §2
Binding data were analysed using GraphPad Prism version 2.01 (GraphPad Software, Inc., San Diego, CA, USA) by non-linear regression to provide estimates of the half maximal inhibitory concentration (IC50) values and the […]. […] The corresponding inhibition constants (Ki) of test compounds were derived from the IC50 values using the Cheng-Prusoff equation [49]. All binding experiments were performed in triplicates, and data are given as mean values from independent experiments.

T1 sequence (P34972 whole entry): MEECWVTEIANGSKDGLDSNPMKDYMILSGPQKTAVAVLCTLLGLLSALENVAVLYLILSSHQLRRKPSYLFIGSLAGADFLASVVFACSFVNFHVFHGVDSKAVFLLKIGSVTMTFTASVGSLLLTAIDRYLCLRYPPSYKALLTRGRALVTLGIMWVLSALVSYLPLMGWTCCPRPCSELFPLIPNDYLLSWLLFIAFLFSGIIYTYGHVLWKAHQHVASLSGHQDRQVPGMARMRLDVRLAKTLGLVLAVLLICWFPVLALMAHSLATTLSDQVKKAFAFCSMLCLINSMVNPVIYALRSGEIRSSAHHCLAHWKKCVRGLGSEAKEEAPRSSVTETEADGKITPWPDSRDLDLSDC

CCn1c2ccccc2c2cc(NC(=O)CCc3nc(-c4ccc(F)cc4F)no3)ccc21 [Compound 6h, 3-(3-(2,4-Difluorophenyl)-1,2,4-oxadiazol-5-yl)-N-(9-ethyl-9H-carbazol-3-yl)propanamide]
Ki [1]: 39.4 nM
Selectivity over hCB1 ([1]; hCB2 versus hCB1): more than 1,000 fold
receptor occupancy at 1 µM [2]: 83%
Ki [3]: > 1000 nM
